Test results: PubChem BioAssay AID2060899 (Molecular Pharmacology Branch, DTP, NCI, 2025)

Tested on: 565726-208-R1-J5-PDC complex spheroids, growth inhibition
Assay: Anticancer human tumor 565726-208-R1-J5-PDC patient-derived pancreatic adenocarcinoma cell line growth inhibition [RAS]
Conditions: for viability, T/C: stronger effect = lower value
How it was run: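 Multi-cell-type spheroids: tumor cells plus HUVEC endothelial cells and mesenchymal stem cells. RAS-pathway inhibitors were combined with targeted agents, each dosed in half-log steps down from clinical Cmax, or from 10 microM when Cmax was unknown.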
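Further: spheroids exposed to compounds for seven days before readout.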
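Wherever viability, T/C is given: 100% = DMSO vehicle control viability.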

C[C@@H](NC(=O)c1ncnc(N)c1Cl)c1ncc(C(=O)Nc2cc(C(F)(F)F)c(Cl)cn2)s1 + C#Cc1c(F)ccc2cc(O)cc(-c3ncc4c(N5CC6CCC(C5)N6)nc(OCC56CCCN5CC(F)C6)nc4c3F)c12 was tested. Which IC50 (curve of first compound, second compound 0.0316 µM) did it give?
The IC50 was over 10 µM.

And the IC50 (curve of first compound, second compound 0.1 µM)?
Its IC50 is over 10 µM.

And the IC50 (curve of first compound, second compound 0.316 µM)?
The IC50 was over 10 µM.

What about the IC50 (curve of first compound, second compound 1 µM) of the same compound?
Its IC50 is over 10 µM.

What about the IC50 (curve of first compound, second compound 3.16 µM) of the same compound?
Its IC50 is over 10 µM.

What about the IC50 (curve of first compound, second compound 10 µM) of the same compound?
Its IC50 is over 10 µM.

What about the viability, T/C (second compound 0.0316 µM, first compound 0.0316 µM) of the same compound?
The viability, T/C was 114%.

What about the viability, T/C (second compound 0.0316 µM, first compound 0.1 µM) of the same compound?
Its viability, T/C is 167%.

What about the viability, T/C (second compound 0.0316 µM, first compound 0.316 µM) of the same compound?
Its viability, T/C is 121%.

What about the viability, T/C (second compound 0.0316 µM, first compound 1 µM) of the same compound?
Its viability, T/C is 102%.

And the viability, T/C (second compound 0.0316 µM, first compound 3.16 µM)?
The viability, T/C was 135%.

And the viability, T/C (second compound 0.0316 µM, first compound 10 µM)?
Its viability, T/C is 129%.

And the viability, T/C (second compound 0.1 µM, first compound 0.0316 µM)?
The viability, T/C was 122%.

What about the viability, T/C (second compound 0.1 µM, first compound 0.1 µM) of the same compound?
The viability, T/C was 166%.

What about the viability, T/C (second compound 0.1 µM, first compound 0.316 µM) of the same compound?
Its viability, T/C is 107%.

And the viability, T/C (second compound 0.1 µM, first compound 1 µM)?
Its viability, T/C is 108%.

What about the viability, T/C (second compound 0.1 µM, first compound 3.16 µM) of the same compound?
The viability, T/C was 116%.

What about the viability, T/C (second compound 0.1 µM, first compound 10 µM) of the same compound?
Its viability, T/C is 127%.

And the viability, T/C (second compound 0.316 µM, first compound 0.0316 µM)?
The viability, T/C was 150%.

And the viability, T/C (second compound 0.316 µM, first compound 0.1 µM)?
Its viability, T/C is 147%.

And the viability, T/C (second compound 0.316 µM, first compound 0.316 µM)?
Its viability, T/C is 94.9%.

And the viability, T/C (second compound 0.316 µM, first compound 1 µM)?
Its viability, T/C is 110%.

And the viability, T/C (second compound 0.316 µM, first compound 3.16 µM)?
Its viability, T/C is 95.8%.

What about the viability, T/C (second compound 0.316 µM, first compound 10 µM) of the same compound?
The viability, T/C was 112%.

What about the viability, T/C (second compound 1 µM, first compound 0.0316 µM) of the same compound?
Its viability, T/C is 134%.

What about the viability, T/C (second compound 1 µM, first compound 0.1 µM) of the same compound?
Its viability, T/C is 135%.

What about the viability, T/C (second compound 1 µM, first compound 0.316 µM) of the same compound?
Its viability, T/C is 92.8%.

What about the viability, T/C (second compound 1 µM, first compound 1 µM) of the same compound?
The viability, T/C was 89.6%.

And the viability, T/C (second compound 1 µM, first compound 3.16 µM)?
The viability, T/C was 107%.

What about the viability, T/C (second compound 1 µM, first compound 10 µM) of the same compound?
The viability, T/C was 105%.

What about the viability, T/C (second compound 3.16 µM, first compound 0.0316 µM) of the same compound?
The viability, T/C was 110%.

And the viability, T/C (second compound 3.16 µM, first compound 0.1 µM)?
The viability, T/C was 123%.

And the viability, T/C (second compound 3.16 µM, first compound 0.316 µM)?
The viability, T/C was 72.8%.

What about the viability, T/C (second compound 3.16 µM, first compound 1 µM) of the same compound?
Its viability, T/C is 68.3%.

And the viability, T/C (second compound 3.16 µM, first compound 3.16 µM)?
Its viability, T/C is 65.4%.

And the viability, T/C (second compound 3.16 µM, first compound 10 µM)?
Its viability, T/C is 102%.

And the viability, T/C (second compound 10 µM, first compound 0.0316 µM)?
The viability, T/C was 100%.

And the viability, T/C (second compound 10 µM, first compound 0.1 µM)?
Its viability, T/C is 102%.

What about the viability, T/C (second compound 10 µM, first compound 0.316 µM) of the same compound?
The viability, T/C was 68.4%.

And the viability, T/C (second compound 10 µM, first compound 1 µM)?
The viability, T/C was 64.8%.

And the viability, T/C (second compound 10 µM, first compound 3.16 µM)?
The viability, T/C was 72.2%.

And the viability, T/C (second compound 10 µM, first compound 10 µM)?
The viability, T/C was 72.8%.

With CC1(O)CCCC1n1c(=O)c(C(F)F)cc2cnc(NC3CCN(S(C)(=O)=O)CC3)nc21 (stereo not given) as the compound, how does the viability, T/C (compound 0.0316 µM) read?
The viability, T/C was 86.8% [middle of 4 runs].

What about the viability, T/C (compound 0.1 µM) of the same compound?
Its viability, T/C is 71.2% [middle of 4 runs].

And the viability, T/C (compound 1 µM)?
Its viability, T/C is 71.2% [middle of 4 runs].

And the viability, T/C (compound 10 µM)?
The viability, T/C was 5.9% [middle of 4 runs].

What about the IC50 (curve of compound) of the same compound?
Its IC50 is 4.5 µM [middle of 4 runs].

What does the source list for C=CC(=O)N1CCN(c2nc(OCC3CCCN3C)nc3c(F)c(-c4nc(N)cc(C)c4C(F)(F)F)c(Cl)cc23)C(C)C1 (stereo not given)?
viability, T/C (compound 0.1 µM): 104% [middle of 12 runs]; IC50 (compound alone, run of 07/15/2024): > 1 µM; IC50 (curve of compound): > 1 µM
